The target in one assay is CYP2C9 (Homo sapiens, UniProt P11712). Briefly: Cytochrome P450 isozyme inhibition, fluorescent Vivid substrate. The class given is in vitro ADME. Particulars: 10 nM CYP2C9, 1 μM Vivid 2C9 Green, 60 minutes. The procedure: (§1) Selected compounds of the invention were assayed for their ability to inhibit various cytochrome P450 isozymes, such as, for example CYP2D6, CYP2C9, CYP1A2, CYP2C19, CYP3A4, CYP2C9, and CYP3A4 (human liver microsome). Such assays are described by Crespi et al., Anal. Biochem. 248:188-90, 1997; Ekins et al., J. Pharmacol. Exp. Ther. 290, 429-38, 1999; and Ekins et al., J. Pharmacol. Exp. Ther. 291, 424-33, 1999. In a typical isozyme inhibition experiment, test compounds are placed into a microwell on a microtiter plate as an 8 nL solution (2 mM in 75% DMSO/water). The plate is centrifuged for 2 minutes at approximately 1000 rpm to shift the compound to the bottom of the well. Polyvinylpyrrolidone (PVP/10K, 100 nL, 0.2% in 75% DMSO/water) is added to the well and this excipient also centrifuged for 2 minutes at approximately 1000 rpm to ensure mixing with the compound. The plates containing the wells are dried in vacuo. Distilled water (800 nL) is added to the wells containing compound, the background control wells, and the positive control wells, followed by the addition of 200 nL of phosphate buffer (500 mM potassium phosphate butter at pH=8.4). The positive control cells contain a drug such as, for example, miconazole. Insect baculosomes (PanVera P2315) in […] phosphate buffer was added to the background control wells and the plate was scanned for compound fluorescence. […] Therefore, CYP450 isozyme (400 nL) and recycling buffer (3.3 mM glucose-6-phosphate, 0.4 units/mL glucose-6-phosphate dehydrogenase, 100 mM MgCl2, and 0.00025% Antifoam 289) in 100 mM phosphate buffer was added to each well containing compound and background control to obtain the following concentrations: 5 nM CYP3A4, 10 nM CYP2C9, 5 nM CYP1A2, 5 nM CYP2C19, and 20 nM CYP2D6. After incubation for 60 minutes, the wells were read with a fluorescent plate reader.

The target of a further assay is T1, CYP1A2 (Homo sapiens, UniProt P05177).
T1 sequence (P05177 1-516): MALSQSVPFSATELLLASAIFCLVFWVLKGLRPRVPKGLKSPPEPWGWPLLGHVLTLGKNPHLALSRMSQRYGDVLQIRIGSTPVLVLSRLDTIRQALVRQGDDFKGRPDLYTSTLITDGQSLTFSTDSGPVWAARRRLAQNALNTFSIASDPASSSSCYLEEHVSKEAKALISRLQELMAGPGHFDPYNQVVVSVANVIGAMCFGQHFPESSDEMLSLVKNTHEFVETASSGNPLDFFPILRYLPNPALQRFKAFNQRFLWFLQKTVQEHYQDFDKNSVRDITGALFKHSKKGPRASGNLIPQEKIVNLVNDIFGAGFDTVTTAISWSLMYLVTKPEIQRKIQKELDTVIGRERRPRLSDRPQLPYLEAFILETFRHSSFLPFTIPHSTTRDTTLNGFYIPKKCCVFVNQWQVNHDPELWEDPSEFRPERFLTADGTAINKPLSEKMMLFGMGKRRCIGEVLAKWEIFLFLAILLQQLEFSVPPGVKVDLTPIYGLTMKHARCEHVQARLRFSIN
The assay is described as above. The class given is in vitro ADME. As to conditions: 5 nM CYP1A2, 2 μM Vivid 1A2 Blue, 60 minutes. As for the experimental part:
as §1

The target of assay [1] is T2, CYP3A4 (human liver microsome) (Homo sapiens, UniProt P08684).
T2 construct: CYP3A4 (human liver microsome); from tissue; host or cells: human liver microsomes
Briefly: Cytochrome P450 inhibition, human liver microsome. Particulars: read-out: CYP3A4 (HLM) Ki. The class given is in vitro ADME. The procedure:
(§2) Selected compounds of the invention were assayed for their ability to inhibit various cytochrome P450 isozymes, such as, for example CYP2D6, CYP2C9, CYP1A2, CYP2C19, CYP3A4, CYP2C9, and CYP3A4 (human liver microsome). Such assays are described by Crespi et al., Anal. Biochem. 248:188-90, 1997; Ekins et al., J. Pharmacol. Exp. Ther. 290, 429-38, 1999; and Ekins et al., J. Pharmacol. Exp. Ther. 291, 424-33, 1999. […] The plate is centrifuged for 2 minutes at approximately 1000 rpm to shift the compound to the bottom of the well. […] Distilled water (800 nL) is added to the wells containing compound, the background control wells, and the positive control wells, followed by the addition of 200 nL of phosphate buffer (500 mM potassium phosphate butter at pH=8.4). The positive control cells contain a drug such as, for example, miconazole. […] After incubation for 60 minutes, the wells were read with a fluorescent plate reader.

For a further assay, the target named is CYP3A4 (Homo sapiens, UniProt P08684). Briefly: Cytochrome P450 isozyme inhibition, fluorescent Vivid substrate. The class given is in vitro ADME. Particulars: 5 nM CYP3A4, 5 μM Vivid 3A4 Red, 60 minutes. As for the experimental part:
as §2, with “miconazole. Insect baculosomes (PanVera […]) in […] phosphate buffer was added to the background control wells and the plate was scanned for compound fluorescence.” for “miconazole.”

Another assay addresses T3, ROCK I (AA 6-553) (Homo sapiens, UniProt Q13464).
T3 construct: ROCK I (AA 6-553)
Briefly: ROCK inhibition assay, standard coupled enzyme system. The format is biochemical. Particulars: 45 nM ROCK I, 45 μM ATP, 200 μM peptide, 30° C. The procedure:
Reactions were carried out in a solution containing 100 mM HEPES (pH 7.5), 10 mM MgCl2, 25 mM NaCl, 2 mM DTT and 1.5% DMSO.

The next assay deals with CYP2C19 (Homo sapiens, UniProt P33261). Put plainly: Cytochrome P450 isozyme inhibition, fluorescent Vivid substrate. The class given is in vitro ADME. Particulars: 5 nM CYP2C19, 10 μM Vivid 2C19 Blue, 60 minutes. The procedure: as §1
In the next assay the target is CYP2D6 (Homo sapiens, UniProt P10635). The assay is described as above. The format is in vitro ADME. As to conditions: 20 nM CYP2D6, 10 μM Vivid 2D6 Blue, 60 minutes. The procedure: as §1

Structures are written as SMILES. Bounds are passed on as bounds.

Sequence of CYP2C19 (P33261 whole entry): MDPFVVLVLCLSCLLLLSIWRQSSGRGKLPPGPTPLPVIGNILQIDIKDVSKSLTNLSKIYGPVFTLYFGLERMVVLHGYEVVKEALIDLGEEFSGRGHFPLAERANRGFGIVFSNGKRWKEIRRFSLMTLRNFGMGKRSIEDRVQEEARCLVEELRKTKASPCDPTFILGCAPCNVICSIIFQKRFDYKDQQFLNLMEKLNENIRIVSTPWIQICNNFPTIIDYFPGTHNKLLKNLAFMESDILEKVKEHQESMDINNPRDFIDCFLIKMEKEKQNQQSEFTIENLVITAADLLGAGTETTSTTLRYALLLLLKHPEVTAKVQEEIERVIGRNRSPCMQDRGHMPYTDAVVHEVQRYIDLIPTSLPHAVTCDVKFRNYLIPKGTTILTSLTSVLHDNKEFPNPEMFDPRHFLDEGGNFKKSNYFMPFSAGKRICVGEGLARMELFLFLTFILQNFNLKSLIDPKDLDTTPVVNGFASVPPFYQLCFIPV
Sequence of CYP2C9 (P11712 whole entry): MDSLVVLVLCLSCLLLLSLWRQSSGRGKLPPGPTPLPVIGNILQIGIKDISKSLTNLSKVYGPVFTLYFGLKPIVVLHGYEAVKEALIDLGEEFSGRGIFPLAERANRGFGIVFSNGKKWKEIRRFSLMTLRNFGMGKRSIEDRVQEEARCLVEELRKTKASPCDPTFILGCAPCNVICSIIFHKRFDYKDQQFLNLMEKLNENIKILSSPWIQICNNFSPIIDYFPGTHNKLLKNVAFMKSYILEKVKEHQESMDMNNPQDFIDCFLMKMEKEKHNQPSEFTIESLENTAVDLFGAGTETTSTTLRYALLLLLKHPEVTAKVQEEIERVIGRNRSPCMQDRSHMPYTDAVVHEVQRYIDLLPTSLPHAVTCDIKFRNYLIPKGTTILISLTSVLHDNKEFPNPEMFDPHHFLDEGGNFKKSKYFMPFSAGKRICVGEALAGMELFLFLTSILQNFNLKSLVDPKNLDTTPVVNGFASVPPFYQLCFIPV
T3 sequence (Q13464 6-553, species assumed): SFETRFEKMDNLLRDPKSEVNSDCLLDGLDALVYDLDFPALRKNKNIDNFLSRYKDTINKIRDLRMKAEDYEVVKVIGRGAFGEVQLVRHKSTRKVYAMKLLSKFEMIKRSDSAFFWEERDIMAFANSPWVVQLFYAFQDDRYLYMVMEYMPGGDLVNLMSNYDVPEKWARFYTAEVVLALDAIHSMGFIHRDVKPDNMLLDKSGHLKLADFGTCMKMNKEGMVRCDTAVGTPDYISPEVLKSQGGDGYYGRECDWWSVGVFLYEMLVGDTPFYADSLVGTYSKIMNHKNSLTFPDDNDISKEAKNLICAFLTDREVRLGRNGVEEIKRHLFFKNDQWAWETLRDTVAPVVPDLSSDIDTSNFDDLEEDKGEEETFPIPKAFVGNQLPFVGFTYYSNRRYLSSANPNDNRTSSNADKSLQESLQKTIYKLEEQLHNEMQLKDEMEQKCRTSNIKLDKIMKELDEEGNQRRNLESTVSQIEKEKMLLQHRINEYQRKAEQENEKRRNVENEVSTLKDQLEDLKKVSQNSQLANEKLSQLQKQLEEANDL
Sequence of CYP3A4 (P08684 whole entry): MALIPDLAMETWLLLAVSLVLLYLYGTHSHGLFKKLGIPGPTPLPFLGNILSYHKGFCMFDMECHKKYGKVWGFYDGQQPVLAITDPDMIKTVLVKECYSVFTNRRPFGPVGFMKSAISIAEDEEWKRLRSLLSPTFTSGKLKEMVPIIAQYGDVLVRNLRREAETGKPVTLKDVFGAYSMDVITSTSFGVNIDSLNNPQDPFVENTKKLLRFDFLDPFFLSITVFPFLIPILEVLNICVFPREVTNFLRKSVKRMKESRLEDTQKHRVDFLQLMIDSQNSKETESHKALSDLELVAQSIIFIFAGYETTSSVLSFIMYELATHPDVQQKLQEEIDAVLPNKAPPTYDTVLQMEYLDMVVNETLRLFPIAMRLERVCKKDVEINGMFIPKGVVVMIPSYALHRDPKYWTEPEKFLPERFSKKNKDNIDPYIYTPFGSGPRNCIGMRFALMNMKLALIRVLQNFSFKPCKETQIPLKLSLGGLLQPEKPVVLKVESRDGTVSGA
T2 sequence (P08684 whole entry): as above
Sequence of CYP2D6 (P10635 whole entry): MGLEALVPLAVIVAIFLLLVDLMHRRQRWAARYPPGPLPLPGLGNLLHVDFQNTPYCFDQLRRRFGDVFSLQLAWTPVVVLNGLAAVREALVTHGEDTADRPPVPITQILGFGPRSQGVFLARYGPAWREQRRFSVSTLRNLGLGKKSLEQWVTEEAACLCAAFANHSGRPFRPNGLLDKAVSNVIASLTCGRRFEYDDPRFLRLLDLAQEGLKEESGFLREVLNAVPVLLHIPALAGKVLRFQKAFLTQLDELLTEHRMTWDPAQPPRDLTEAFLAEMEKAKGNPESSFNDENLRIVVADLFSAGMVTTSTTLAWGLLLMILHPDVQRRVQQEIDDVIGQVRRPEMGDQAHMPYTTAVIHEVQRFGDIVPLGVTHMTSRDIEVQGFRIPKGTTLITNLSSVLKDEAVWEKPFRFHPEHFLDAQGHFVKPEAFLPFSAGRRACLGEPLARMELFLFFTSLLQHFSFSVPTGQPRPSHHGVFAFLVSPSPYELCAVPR

In the case of `Cc1cc(-c2csc(NC(=O)Cc3cccc(OCCCN4CCN(C)CC4)c3)c2)ccn1` [Compound 90], the Ki on CYP2C9 is more than 10 µM; at CYP1A2, more than 10 µM; in assay [1], more than 10 µM; at CYP3A4, more than 10 µM; on ROCK I (AA 6-553), 0.1 to 1 µM.
In the case of `COc1cccc(CC(=O)Nc2cc(-c3ccnc(N)c3)cs2)c1` [Compound 64, N-(4-(2-aminopyridin-4-yl)thiophen-2-yl)-2-(3-methoxyphenyl)acetamide], the Ki is 1 to 10 µM on CYP2C9, 1 to 10 µM at CYP1A2, more than 10 µM at CYP2C19 and 1 to 10 µM on CYP2D6.
Take `Cc1cc(-c2csc(NC(=O)Cc3cccc(OCCCN4CCNCC4)c3)c2)ccn1` [Compound 89]: the inhibitory constant (Ki) on CYP2C9 is more than 10 µM; at CYP1A2, more than 10 µM; at CYP2C19, 1 to 10 µM; in assay [1], more than 10 µM; on CYP3A4 it was more than 10 µM; on ROCK I (AA 6-553), less than 0.1 µM.
In the case of `Cc1cc(-c2csc(NC(=O)Cc3cccc(OCCN4CCNCC4)c3)c2)ccn1` [Compound 92], the Ki at CYP2C9 is more than 10 µM; at CYP1A2, more than 10 µM; at CYP2C19 it was more than 10 µM; in assay [1], more than 10 µM; at CYP3A4 it was more than 10 µM; on ROCK I (AA 6-553) it was 0.1 to 1 µM.
For the compound `COc1cccc(CC(=O)Nc2cc(-c3ccnc(C)c3)cs2)c1` [Compound 80], the Ki is 1 to 10 µM on CYP2C9; more than 10 µM at CYP1A2; 1 to 10 µM on CYP2C19; more than 10 µM at CYP2D6; 1 to 10 µM in assay [1]; 1 to 10 µM at CYP3A4. In addition, the Ki at ROCK I (AA 6-553) is 0.1 to 1 µM.
For `CN1CCN(CCOc2cccc(CC(=O)Nc3cc(-c4ccnc(F)c4)cs3)c2)CC1` [Compound 73], the Ki was more than 10 µM at CYP2C9; more than 10 µM on CYP1A2; more than 10 µM at CYP2D6; more than 10 µM in assay [1]; more than 10 µM at CYP3A4; less than 0.1 µM on ROCK I (AA 6-553).
On to `O=C(Cc1cc2c(cc1Cl)OCO2)Nc1cc(-c2ccnc(Cl)c2)cs1` [Compound 105], for which the inhibitory constant (Ki) at CYP2C9 is 1 to 10 µM; on CYP1A2, 1 to 10 µM; on CYP2C19, less than 1 µM; on CYP2D6 it was less than 1 µM; in assay [1], 1 to 10 µM; on CYP3A4 it was 1 to 10 µM. The same compound yielded a Ki at ROCK I (AA 6-553) of less than 0.1 µM.
As to `Cc1cc(-c2csc(NC(=O)Cc3cccc(OCCN4CCN(C)CC4)c3)c2)ccn1` [Compound 93], the Ki is more than 10 µM at CYP2C9; more than 10 µM at CYP1A2; more than 10 µM at CYP2C19; more than 10 µM in assay [1]; more than 10 µM at CYP3A4; 0.1 to 1 µM at ROCK I (AA 6-553).
As for `O=C(Cc1cccc(O)c1)Nc1cc(-c2ccnc(Cl)c2)cs1` [Compound 101], the Ki on CYP2C9 is 1 to 10 µM; on CYP1A2, 1 to 10 µM; on CYP2C19 it was 1 to 10 µM; in assay [1] it was 1 to 10 µM; on CYP3A4 it was 1 to 10 µM; at ROCK I (AA 6-553), less than 0.1 µM.
For `Cc1cc(-c2csc(NC(=O)Cc3cccc(OCCN4CCCCC4)c3)c2)ccn1` [Compound 94], the Ki at CYP2C9 was more than 10 µM; at CYP1A2, more than 10 µM; at CYP2C19 it was more than 10 µM; in assay [1], more than 10 µM; at CYP3A4, more than 10 µM; on ROCK I (AA 6-553), more than 1 µM.
Regarding `Nc1cc(-c2csc(NC(=O)Cc3cccc(OCCCC4CCNCC4)c3)c2)ccn1` [Compound 77], the Ki was 1 to 10 µM on CYP2C9; more than 10 µM on CYP1A2; 1 to 10 µM at CYP2C19; less than 1 µM on CYP2D6; 1 to 10 µM in assay [1]; 1 to 10 µM at CYP3A4. Further, the Ki at ROCK I (AA 6-553) was less than 0.1 µM.
With `COc1cccc(CC(=O)Nc2cc(-c3ccnc(F)c3)cs2)c1` [Compound 61], the inhibitory constant (Ki) is 1 to 10 µM at CYP2C9, more than 10 µM at CYP1A2, 1 to 10 µM at CYP2C19 and more than 10 µM on CYP2D6.
Consider `COc1cccc(CC(=O)Nc2cc(-c3ccnc(Cl)c3)cs2)c1` [Compound 62], for which the Ki on CYP2C9 is 1 to 10 µM; at CYP1A2, more than 10 µM.
For `CN1CCN(CCCOc2cccc(CC(=O)Nc3cc(-c4ccnc(Cl)c4)cs3)c2)CC1` [Compound 103], the Ki (on CYP2C9; on CYP1A2; at CYP2C19; at CYP2D6; in assay [1]; at CYP3A4) was more than 10 µM throughout. The compound further returned a Ki on ROCK I (AA 6-553) of less than 0.1 µM.
For `O=C(Cc1cccc(OCCCC2CCNCC2)c1)Nc1cc(-c2ccnc(F)c2)cs1` [Compound 72], the Ki was more than 10 µM on CYP1A2; 1 to 10 µM at CYP2C19; 1 to 10 µM on CYP2D6; more than 10 µM in assay [1]; 1 to 10 µM at CYP3A4; less than 0.1 µM on ROCK I (AA 6-553).
In the case of `O=C(Cc1cccc(OCCCN2CCNCC2)c1)Nc1cc(-c2ccnc(Cl)c2)cs1` [Compound 102], the Ki on CYP2C9 was more than 10 µM; at CYP1A2, more than 10 µM; on CYP2C19 it was 1 to 10 µM; at CYP2D6 it was more than 10 µM; in assay [1], more than 10 µM; at CYP3A4, 1 to 10 µM. The same compound gave a Ki on ROCK I (AA 6-553) of less than 0.1 µM.
With `CN1CCN(CCCOc2cccc(CC(=O)Nc3cc(-c4ccnc(F)c4)cs3)c2)CC1` [Compound 74], the inhibition constant (Ki) (at CYP2C9; on CYP1A2; on CYP2C19; on CYP2D6; in assay [1]; at CYP3A4) was more than 10 µM throughout. The compound further gave a Ki at ROCK I (AA 6-553) of less than 0.1 µM.
